The values that follow are results of earlier work, collected in patent US5935597A, “Drug delivery devices and methods for treatment of viral and microbial infections and wasting syndromes” (Cryopreservation Technologies CC, priority 1995, dated 1999).

Data set [1] concerns HIV. Particulars: cited from earlier work.
For a further data set, the system named is human cancer xenografts. Particulars: intraperitoneal injection, nude mice; cited from earlier work.
The subject of the next data set is human cancer. Particulars: cited from earlier work.
Data set [2] has as its system HIV. To be noted: certain cultured cell lines; cited from earlier work.
In data set [3] the test system is Human Herpes Virus 6 (HHV-6). Particulars: certain cultured cell lines; cited from earlier work.
For a further data set, the system named is mouse sarcoma allograft. To be noted: in vivo; cited from earlier work.
The conditions of data set [4]: appetite enhancers, wasting syndromes; cited from earlier work.
The test system of another data set is HIV-1. To be noted: cells infected with HIV-1 isolates, in vitro; cited from earlier work.
Another data set has as its system HIV-2. To be noted: cells infected with HIV-2 isolates, in vitro; cited from earlier work.

`Cc1cn([C@H]2C=C[C@@H](CO)O2)c(=O)[nH]c1=O` [d4T, stavudine]: in the data set with HIV [1], the anti-HIV activity entry is “active against HIV”. As for `CNC=O` [NMF, N-methylformamide], in the data set with human cancer xenografts, the “growth of human cancer xenografts” value is listed as “slow the growth of certain human cancer xenografts”. Besides, the anticancer activity result in the data set with human cancer (oral, human patients with cancer of the head and neck (Planting et al.)) was “only minimal activity”. Further, in the data set with human cancer (oral, human patients with cancer of the head and neck (Vogel et al.)), the hepatotoxicity and response entry is given as “hepatotoxicity with no beneficial response”.

On to `C[S+](C)[O-]` [DMSO, dimethylsulfoxide], for which the “in vitro replication of HIV” value with HIV [2] is given as “inhibit in vitro replication of HIV”. In the data set with human cancer (human cancer patients), the objective response result is reported as “no objective response”. Moreover, the “in vitro replication of HHV-6” value in data set [3] is “inhibit in vitro replication of HIV and Human Herpes Virus 6 (HHV-6)”. For the molecule `NC=O` [formamide], the toxicity result in the data set on mouse sarcoma allograft was “toxic side-effects”.

`CCCCCc1cc(O)c2c(c1)OC(C)(C)[C@@H]1CCC(C)=C[C@@H]21` [dronabinol]: in [4], the weight gain result is “tended to gain only fat and not overall body mass”. For the molecule `CC(=O)O[C@]1(C(C)=O)CC[C@H]2[C@@H]3C=C(C)C4=CC(=O)CC[C@]4(C)[C@H]3CC[C@@]21C` [megestrol acetate], the weight gain entry in data set [4] is “tended to gain only fat and not overall body mass”.

B1: RANTES: chemokine secreted by CD8+ T cells (protein, UniProt P13501 24-91, looked up)
C-C motif chemokine 5: SPYSSDTTPCCFAYIARPLPRAHIKEYFYTSGKCSNPAVVFVTRKNRQVCANPEKKWVREYINSLEMS
As for B1, the “HIV-1 p24 antigen production” value in the data set with HIV-1 and in the data set with HIV-2 was “suppress HIV-1 p24 antigen production” throughout.

B2: MIP-1α: chemokine secreted by CD8+ T cells (protein, UniProt P10147 24-92, looked up)
C-C motif chemokine 3: SLAADTPTACCFSYTSRQIPQNFIADYFETSSQCSKPGVIFLTKRSRQVCADPSEEWVQKYVSDLELSA
In the case of B2, the “HIV-1 p24 antigen production” value with HIV-1 and in the data set with HIV-2 was “suppress HIV-1 p24 antigen production” each time.

B3: MIP-1β: chemokine secreted by CD8+ T cells (protein, UniProt P13236 24-92, looked up)
C-C motif chemokine 4: APMGSDPPTACCFSYTARKLPRNFVVDYYETSSLCSQPAVVFQTKRSKQVCADPSESWVQEYVYDLELN
modifications: ends and bridges not checked
notes: chemokine secreted by CD8+ T cells
For B3, the “HIV-1 p24 antigen production” value in the data set with HIV-1 and in the data set with HIV-2 was “suppress HIV-1 p24 antigen production” throughout.
